# Laboratory results taken from patent publication US9044486B2, “Method for prophylaxis or treatment of feline infectious peritonitis” (Cornell University, priority 2008, dated 2015).
# Where two headings read alike, the source gives them in different places. Where a SMILES comes first, the peptide text is derived from it. The star is where a group is joined. Cbz = O=C(OCc1ccccc1)*; CHN2 = [N-]=[N+]=C*; tBu = CC(C)(C)*
# B1: cystatin C: a potent inhibitor of cathepsin B (protein, UniProt P01034 27-146, looked up)
# Cystatin-C: SSPGKPPRLVGGPMDASVEEEGVRRALDFAVGEYNKASNDMYHSRALQVVRARKQIVAGVNYFLDVELGRTTCTKTQPNLDNCPFHDQPHLKRKAFCSFQIYAVPWQGTMTLSKSTCQDA
# Legend:
# FIPV-DF2 [1] = experiment: Infection of primary feline blood monocytes by immunofluorescence; assay type: cell-based, Feline infectious peritonitis virus; conditions: monocytes pretreated with 10 μM inhibitor; 12 h post-infection
# [2] = tested on: serotype I FIPV black strain; experiment: Infection of AK-D cells by a serotype I FCoV, immunofluorescence; assay type: cell-based, Feline infectious peritonitis virus; conditions: AK-D cells pretreated with 10 uM inhibitor
# Procedure: AK-D cells were pretreated with either 10 uM cathepsin B inhibitor CA074-Me (CatB-I), 10 uM cathepsin L inhibitor Z-FY(tBu)-DMK (CatL-I), or 10 mM NH4Cl, and then infected with virus the serotype I FIPV black strain. Immunofluorescence was performed essentially as described for FIG. 4.
# AK-D cells were pretreated with either 10 uM cathepsin B inhibitor CA074-Me (CatB-I), 10 uM cathepsin L inhibitor Z-FY(tBu)-DMK (CatL-I), or 10 mM NH4Cl, and then infected with virus FIPV black strain, a serotype I FIPV. Immunofluorescence was performed essentially as described for FIG. 4.
# cathepsin B [3] = target: cathepsin B (Homo sapiens, UniProt P07858); conditions: kinact/Ki (k2/Ki); cited from earlier work
# FIPV-DF2 [4] = experiment: Infection of feline cell lines CRFK, AK-D, Fc2Lu by immunofluorescence; assay type: cell-based, Feline infectious peritonitis virus
# FIPV-1146 [5] = experiment: as above; assay type: cell-based, Feline infectious peritonitis virus
# influenza virus [6] = assay type: cell-based; conditions: for influenza virus entry, cathepsin inhibitor treatment: anti-influenza nucleoprotein mAb H19
# FECV-1683 [7] = experiment: Growth assay: production of extracellular virus by TCID50, A-72 cells; assay type: cell-based, feline enteric coronavirus; conditions: A-72 cells pretreated with 10 μM inhibitor; media collected 9 h post-infection; vs DMSO control
# FIPV-1146 [8] = assay type: cell-based, Feline infectious peritonitis virus; conditions: for infection by FIPV-1146 (entry), inhibitor pre-incubation: five log dilutions of inhibitor 60 min pre-infection
# FECV-1683 [9] = experiment: Infection of feline cell lines CRFK, AK-D, Fc2Lu by immunofluorescence; assay type: cell-based, feline enteric coronavirus; conditions: Fc2Lu cells, pretreated with 10 uM inhibitor or 10 mM NH4Cl, 6 h post-infection
# FECV-1683 [10] = experiment: Infection (entry) assay by immunofluorescence, A-72 cells; assay type: cell-based, feline enteric coronavirus; conditions: for infection by FECV-1683 (entry), inhibitor pre-incubation: five log dilutions of inhibitor 60 min pre-infection; for infection by FECV-1683 (entry), inhibitor pre-incubation / infection by FECV-1683, inhibitor treatment after entry: fixed 6 h post-infection; for infection by FECV-1683, inhibitor treatment after entry: inhibitor 60 min post-infection
# cathepsin L = cathepsin L (Homo sapiens, UniProt P07711); conditions: kinact/Ki (k2/Ki); cited from earlier work
# FIPV-1146 [11] = experiment: Infection of primary feline blood monocytes by immunofluorescence; assay type: cell-based, Feline infectious peritonitis virus; conditions: monocytes pretreated with 10 μM inhibitor; 12 h post-infection
# cathepsin B [12] = target: T1, cathepsin B (Mus musculus, UniProt P10605); conditions: 10 mg/kg; cited from earlier work
# T1 construct: host or cells: mouse (in vivo)
# FIPV-1146 [13] = experiment: Growth assay: production of extracellular virus by TCID50, A-72 cells; assay type: cell-based, Feline infectious peritonitis virus; conditions: A-72 cells pretreated with 10 μM inhibitor; media collected 9 h post-infection; vs DMSO control
# influenza virus [14] = assay type: cell-based; conditions: A-72 cells pretreated with inhibitor; control virus
# Sendai virus = assay type: cell-based
# murine coronavirus (A59) = conditions: cited from earlier work
# human coronaviruses = conditions: cited from earlier work
# FIPV = conditions: cited from earlier work
# [15] = CRFK, AK-D, Fc2Lu cells, pretreated with 10 uM inhibitor or 10 mM NH4Cl, 6 h post-infection
# [16] = A-72 cells, fixed 6 h post-infection
# [17] = A-72 cells, post-treatment at the concentrations shown in FIG. 3
# [18] = A-72 cells, pretreatment with 50 nM bafilomycin A1
# [19] = A-72 cells, 1 h post-infection, concentrations shown in FIG. 3
# T1 sequence (P10605 80-333): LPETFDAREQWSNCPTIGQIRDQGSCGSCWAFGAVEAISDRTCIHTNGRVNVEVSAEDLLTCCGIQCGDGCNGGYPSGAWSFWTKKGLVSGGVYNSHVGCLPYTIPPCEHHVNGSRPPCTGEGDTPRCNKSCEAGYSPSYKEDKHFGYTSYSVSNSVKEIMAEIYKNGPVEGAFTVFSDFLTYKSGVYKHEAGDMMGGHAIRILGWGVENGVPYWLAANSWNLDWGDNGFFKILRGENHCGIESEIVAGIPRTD
# Chain of cathepsin L (P07711 114-333, species assumed): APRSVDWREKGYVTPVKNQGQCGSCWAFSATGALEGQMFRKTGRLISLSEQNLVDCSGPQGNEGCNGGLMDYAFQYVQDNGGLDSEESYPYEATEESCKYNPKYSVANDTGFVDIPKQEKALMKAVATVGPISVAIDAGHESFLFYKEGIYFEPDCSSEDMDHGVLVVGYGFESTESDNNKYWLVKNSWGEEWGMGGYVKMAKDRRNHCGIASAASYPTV
molecule,measurement,setting,value
"CCCNC(=O)[C@H]1O[C@@H]1C(=O)N[C@H](C(=O)N1CCC[C@H]1C(=O)OC)[C@@H](C)CC (relative stereo) [CA074-Me, [L-3-trans-(Propylcarbamoyl)oxirane-2-carbonyl]-L-isoleucyl-L-proline Methyl Ester]",inhibition of infection by FIPV-DF2 of primary feline blood monocytes,FIPV-DF2 [1],85-95%
same,replication of the serotype I FIPV strain,[2],can inhibit replication
same,apparent second order rate constant for cathepsin B,cathepsin B [3],201 M⁻¹ s⁻¹
same,infection by FIPV-DF2 of feline cell lines,FIPV-DF2 [4]; [15],almost completely prevented infection
same,infection by FIPV-1146 of feline cell lines,FIPV-1146 [5]; [15],almost completely prevented infection
same,"influenza virus entry, cathepsin inhibitor treatment","influenza virus [6]; A-72 cells, […]",Neither the cathepsin B nor the cathepsin L inhibitor had an effect
same,"production of FECV-1683 viral particles (extracellular virus, TCID50)",FECV-1683 [7],considerably limited the production
same,"infection by FIPV-1146 (entry), inhibitor pre-incubation",FIPV-1146 [8]; [16],almost completely blocked infection
same,"infection by FIPV-1146, inhibitor treatment after entry","FIPV-1146 [8]; A-72 cells, inhibitor 60 min post-infection, fixed 6 h post-infection",no effect
same,infection by FECV-1683 of feline cell lines,FECV-1683 [9],almost completely prevented infection
same,"infection by FECV-1683 (entry), inhibitor pre-incubation",FECV-1683 [10]; A-72 cells,potently blocked infection
same,"infection by FECV-1683, inhibitor treatment after entry",FECV-1683 [10]; A-72 cells,no effect
same,apparent second order rate constant for cathepsin L,cathepsin L,85 M⁻¹ s⁻¹
same,inhibition of infection by FIPV-1146 of primary feline blood monocytes,FIPV-1146 [11],85-95%
same,inhibition of cathepsin B in a mouse,cathepsin B [12],inhibit cathepsin B
same,"production of FIPV-1146 viral particles (extracellular virus, TCID50)",FIPV-1146 [13],considerably limited the production
"CC(C)C[C@H](NC(=O)OCc1ccccc1)C(=O)NNC(=O)NNC(=O)[C@H](CC(C)C)NC(=O)[C@H](Cc1ccccc1)NC(=O)OC(C)(C)C [Boc1, 1-(N-Benzyloxycarbonyl-leucyl)-5-(N-Boc-phenylalanyl-leucyl)carbohydrazide]","influenza virus entry, cathepsin inhibitor treatment",influenza virus [6]; [16],no effect
same,"production of FECV-1683 viral particles (extracellular virus, TCID50)",FECV-1683 [7],no significant effect
same,"infection by FIPV-1146 (entry), inhibitor pre-incubation",FIPV-1146 [8]; [16],no effect
same,"infection by FECV-1683 (entry), inhibitor pre-incubation",FECV-1683 [10]; A-72 cells,no effect
same,"production of FIPV-1146 viral particles (extracellular virus, TCID50)",FIPV-1146 [13],no significant effect
"CCOC(=O)[C@H]1O[C@@H]1C(=O)N[C@@H](CC(C)C)C(=O)NCCC(C)C [E-64d, (2S,3S)-trans-Epoxysuccinyl-L-leucylamido-3-methylbutane ethyl ester]","production of FECV-1683 viral particles (extracellular virus, TCID50)",FECV-1683 [7],significantly reduced
same,effect on influenza virus infection,influenza virus [14],no effect
same,"production of FIPV-1146 viral particles (extracellular virus, TCID50)",FIPV-1146 [13],significantly reduced
Cl.N [NH4Cl],infection by FIPV-DF2 of feline cell lines,FIPV-DF2 [4],only a marginal effect
same,infection by FIPV-1146 of feline cell lines,FIPV-1146 [5],only a marginal effect
same,influenza virus entry,influenza virus [6],completely inhibited
same,FIPV-1146 entry,FIPV-1146 [8],only partially blocked
same,"FIPV-1146 infection, lysosomotropic agent treatment after entry",FIPV-1146 [8],minimal effect
same,"FIPV-1146 infectivity, treatment after entry at higher concentrations",FIPV-1146 [8],significantly reduce infectivity
same,inhibition of entry of FIPV-1146,FIPV-1146 [8],approximately 20%
same,infection by FECV-1683 of feline cell lines,FECV-1683 [9],selectively inhibited
same,"FECV-1683 infection, lysosomotropic agent treatment after entry",FECV-1683 [10],minimal effect
same,"FECV-1683 infectivity, treatment after entry at higher concentrations",FECV-1683 [10],significantly reduce infectivity
same,entry by FECV-1683,FECV-1683 [10],almost completely blocked entry
same,Sendai virus entry,Sendai virus,no reduction in entry
"CC(C)(C)Oc1ccc(C[C@H](NC(=O)[C@H](Cc2ccccc2)NC(=O)OCc2ccccc2)C(=O)C=[N+]=[N-])cc1 [Z-FY-(tBu)-DMK, Z-Phe-Tyr(t-Bu)-diazomethylketone] (Cbz-Phe-Tyr(tBu)-CHN2)",effect on FIPV-DF2 infection of primary feline monocytes (in words),FIPV-DF2 [1],no significant effect
same,infection by FIPV-DF2 of feline cell lines,FIPV-DF2 [4]; [15],little or no effect
same,infection by FIPV-1146 of feline cell lines,FIPV-1146 [5]; [15],little or no effect
same,"influenza virus entry, cathepsin inhibitor treatment","influenza virus [6]; A-72 cells, […]",Neither the cathepsin B nor the cathepsin L inhibitor had an effect
same,"production of FECV-1683 viral particles (extracellular virus, TCID50)",FECV-1683 [7],greatly diminished the propagation
same,"infection by FIPV-1146 (entry), inhibitor pre-incubation",FIPV-1146 [8]; [16],"no effect on FIPV-1146 entry, except for some limited effect at the highest concentration tested"
same,infection by FECV-1683 of feline cell lines,FECV-1683 [9],selectively inhibited
same,"infection by FECV-1683 (entry), inhibitor pre-incubation",FECV-1683 [10]; A-72 cells,potently blocked infection
same,"infection by FECV-1683, inhibitor treatment after entry",FECV-1683 [10]; A-72 cells,no effect
same,effect on FIPV-1146 infection of primary feline monocytes (in words),FIPV-1146 [11],no significant effect
same,"production of FIPV-1146 viral particles (extracellular virus, TCID50)",FIPV-1146 [13],only a negligible effect
CO/C1=C\C(C)=C\[C@@H](C)[C@@H](O)[C@@H](C)C/C(C)=C/C=C/[C@H](OC)[C@@H]([C@@H](C)[C@@H](O)[C@H](C)[C@@]2(O)C[C@@H](O)[C@H](C)[C@@H](C(C)C)O2)OC1=O [bafilomycin A1],"influenza virus infection, post-treatment",influenza virus [6]; [17],no effect
same,entry of influenza virus,influenza virus [6]; [18],completely blocked entry
same,"FIPV-1146 infectivity, treatment after entry at higher concentrations",FIPV-1146 [8],significantly reduce infectivity
same,"FIPV-1146 infection, lysosomotropic agent treatment after entry",FIPV-1146 [8]; [19],minimal effect
same,inhibition of entry by FIPV-1146,FIPV-1146 [8]; [18],approximately 40%
same,"FECV-1683 infectivity, treatment after entry at higher concentrations",FECV-1683 [10],significantly reduce infectivity
same,"FECV-1683 infection, lysosomotropic agent treatment after entry",FECV-1683 [10]; [19],minimal effect
same,entry of FECV-1683,FECV-1683 [10]; [18],completely blocked entry
same,Sendai virus entry,"Sendai virus; A-72 cells, bafilomycin A1 at the concentrations tested",unaffected
same,"Sendai virus infection, post-treatment",Sendai virus; [17],no effect
CC(=O)N[C@@H](CC(C)C)C(=O)N[C@@H](CC(C)C)C(=O)N[C@H](C=O)CCCNC(=N)N [leupeptin],replication of murine coronavirus A59,murine coronavirus (A59),does not strongly inhibit
same,replication of human coronavirus,human coronaviruses,inhibits
same,inhibition of FIPV,FIPV,does not strongly inhibit
B1,replication of murine coronavirus A59,murine coronavirus (A59),lack of inhibition
same,replication of human coronavirus,human coronaviruses,inhibited replication
